Measurements as given in ChEMBL document CHEMBL4014306, “Pyrazolopyrimidines as Potent Stimulators for Transient Receptor Potential Canonical 3/6/7 Channels” (J Med Chem, 2017).
Active and inactive are the calls of the source. The calls are words filed in the database; no cut-off is given here.

Columns and labels:
Type in all cases: cell-based
[1] = molecular target: T1, Short transient receptor potential channel 7 (Homo sapiens, UniProt Q9HCX4); assay: Agonist activity at human TRPC7 expressed in HEK293 cells assessed as increase in intracellular calcium level measured for 2.5 mins in presence of 2 mM Ca2+ by Fluo8-AM dye-based fluorescence assay
T1 sequence (Q9HCX4 whole entry): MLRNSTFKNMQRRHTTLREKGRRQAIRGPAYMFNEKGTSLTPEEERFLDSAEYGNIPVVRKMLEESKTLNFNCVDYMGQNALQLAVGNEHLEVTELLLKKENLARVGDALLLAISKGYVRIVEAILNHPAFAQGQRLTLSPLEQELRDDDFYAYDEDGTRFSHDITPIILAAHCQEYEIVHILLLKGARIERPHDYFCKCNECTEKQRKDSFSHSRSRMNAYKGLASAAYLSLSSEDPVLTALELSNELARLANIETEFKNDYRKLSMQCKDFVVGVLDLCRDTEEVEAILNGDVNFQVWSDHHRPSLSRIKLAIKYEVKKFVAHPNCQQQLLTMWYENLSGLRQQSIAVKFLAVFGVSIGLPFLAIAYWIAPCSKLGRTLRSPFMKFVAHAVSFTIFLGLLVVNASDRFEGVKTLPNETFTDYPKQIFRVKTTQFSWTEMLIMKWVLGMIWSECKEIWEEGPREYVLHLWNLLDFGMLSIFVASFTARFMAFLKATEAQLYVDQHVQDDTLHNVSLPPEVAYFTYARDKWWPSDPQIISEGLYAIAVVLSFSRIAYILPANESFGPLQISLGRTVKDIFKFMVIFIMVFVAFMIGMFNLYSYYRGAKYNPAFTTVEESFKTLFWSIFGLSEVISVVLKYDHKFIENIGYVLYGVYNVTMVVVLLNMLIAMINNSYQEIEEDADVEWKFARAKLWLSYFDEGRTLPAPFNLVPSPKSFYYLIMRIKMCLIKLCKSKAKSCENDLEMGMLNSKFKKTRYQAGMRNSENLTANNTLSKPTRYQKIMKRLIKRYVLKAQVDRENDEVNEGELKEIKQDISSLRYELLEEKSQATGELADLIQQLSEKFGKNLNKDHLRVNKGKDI

[2] = molecular target: T2, Transient receptor potential cation channel subfamily V member 3 (Mus musculus) (UniProt Q8K424); assay: Agonist activity at mouse TRPV3 expressed in HEK293 cells assessed as increase in intracellular calcium level at 33 uM measured for 2.5 mins by Fluo-8-AM dye based fluorescence assay
T2 sequence (whole entry): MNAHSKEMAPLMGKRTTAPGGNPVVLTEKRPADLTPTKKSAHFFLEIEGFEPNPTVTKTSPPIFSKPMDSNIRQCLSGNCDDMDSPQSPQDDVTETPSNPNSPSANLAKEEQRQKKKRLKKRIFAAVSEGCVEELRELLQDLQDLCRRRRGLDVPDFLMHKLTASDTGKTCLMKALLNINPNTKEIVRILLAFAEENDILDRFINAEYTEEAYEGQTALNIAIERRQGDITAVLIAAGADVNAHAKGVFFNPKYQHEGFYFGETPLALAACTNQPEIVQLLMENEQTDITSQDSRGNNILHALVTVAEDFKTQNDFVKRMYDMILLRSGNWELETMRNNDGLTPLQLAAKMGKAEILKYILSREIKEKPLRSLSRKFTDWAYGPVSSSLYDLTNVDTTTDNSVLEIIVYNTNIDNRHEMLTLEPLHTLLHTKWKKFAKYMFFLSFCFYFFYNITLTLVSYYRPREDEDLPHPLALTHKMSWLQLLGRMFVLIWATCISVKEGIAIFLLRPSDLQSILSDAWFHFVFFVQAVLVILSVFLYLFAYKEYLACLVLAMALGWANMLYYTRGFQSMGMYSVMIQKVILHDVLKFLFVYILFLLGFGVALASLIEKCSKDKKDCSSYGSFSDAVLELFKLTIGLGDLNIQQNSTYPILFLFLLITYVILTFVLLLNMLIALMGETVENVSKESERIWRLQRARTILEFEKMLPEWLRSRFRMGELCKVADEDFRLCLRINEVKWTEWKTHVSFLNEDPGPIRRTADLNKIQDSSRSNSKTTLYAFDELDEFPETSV

[3] = molecular target: T3, Transient receptor potential cation channel subfamily M member 5 (Homo sapiens) (UniProt Q9NZQ8); assay: Agonist activity at human TRPM5 expressed in HEK293 cells assessed as induction of membrane depolarization at 33 uM measured for 2.5 mins by FLIPR membrane potential dye-based fluorescence assay
T3 sequence (whole entry): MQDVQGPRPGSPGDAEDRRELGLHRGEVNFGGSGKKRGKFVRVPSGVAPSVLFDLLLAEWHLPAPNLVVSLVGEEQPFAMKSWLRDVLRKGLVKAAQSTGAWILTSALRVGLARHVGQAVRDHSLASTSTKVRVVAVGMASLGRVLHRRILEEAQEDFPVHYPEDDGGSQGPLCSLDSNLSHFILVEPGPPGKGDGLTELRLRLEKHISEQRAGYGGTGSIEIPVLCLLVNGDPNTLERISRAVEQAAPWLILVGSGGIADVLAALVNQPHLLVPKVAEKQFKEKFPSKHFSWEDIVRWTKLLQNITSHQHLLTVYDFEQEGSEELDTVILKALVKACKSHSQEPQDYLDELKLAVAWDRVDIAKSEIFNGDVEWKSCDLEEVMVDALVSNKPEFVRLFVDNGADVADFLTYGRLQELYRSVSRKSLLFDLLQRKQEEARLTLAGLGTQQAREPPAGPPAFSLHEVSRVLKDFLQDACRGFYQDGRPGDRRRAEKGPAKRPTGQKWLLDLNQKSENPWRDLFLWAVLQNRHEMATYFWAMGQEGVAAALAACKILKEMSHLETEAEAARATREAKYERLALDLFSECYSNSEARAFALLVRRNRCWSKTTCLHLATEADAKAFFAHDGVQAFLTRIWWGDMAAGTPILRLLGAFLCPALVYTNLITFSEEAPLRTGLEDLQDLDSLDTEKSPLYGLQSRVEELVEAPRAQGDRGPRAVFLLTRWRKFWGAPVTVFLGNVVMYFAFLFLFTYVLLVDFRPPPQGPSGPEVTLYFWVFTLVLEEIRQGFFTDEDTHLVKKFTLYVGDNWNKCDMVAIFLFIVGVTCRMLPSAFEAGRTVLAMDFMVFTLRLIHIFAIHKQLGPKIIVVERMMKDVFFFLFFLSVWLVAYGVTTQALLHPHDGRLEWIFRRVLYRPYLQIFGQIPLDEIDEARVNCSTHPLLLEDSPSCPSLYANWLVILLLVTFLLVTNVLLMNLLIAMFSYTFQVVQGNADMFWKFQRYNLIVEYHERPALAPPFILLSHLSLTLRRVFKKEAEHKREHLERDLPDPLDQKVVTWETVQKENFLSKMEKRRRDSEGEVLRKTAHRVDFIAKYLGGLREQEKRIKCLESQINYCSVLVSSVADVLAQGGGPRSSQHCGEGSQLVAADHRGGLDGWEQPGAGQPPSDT

Row | EC50 [1] [nM] | Activity [2] | Activity [3] | Compound
1 | 90 | inactive | inactive | CCOC(=O)N1CCC(c2cc(O)n3nc(C)c(-c4ccc(C(F)(F)F)cc4)c3n2)CC1
2 | 213 | inactive | inactive | Cc1nn2c(O)cc(C3CCN(C(=O)OCc4ccccc4)CC3)nc2c1-c1ccc(Cl)cc1
3 | 314 | inactive | inactive | Cc1nn2c(O)cc(C3CCN(C(=O)OCc4ccccc4)CC3)nc2c1-c1ccc(F)cc1

Row | Compound | EC50 [1] [nM] | Activity [2] | Activity [3]
4 | CCOC(=O)N1CCC(c2cc(O)n3nc(C)c(-c4ccc(F)cc4)c3n2)CC1 | 497 | inactive | inactive
